Test results as given in patent EP1069898B1, “TOPICAL ANTISEPTIC COMPOSITIONS AND METHODS” (MARGOLIN, Solomon B., priority 1998, dated 1999).

How the values were obtained:
[1] = system: Proteus vulgaris; test: Preliminary antimicrobial test, plate growth score; assay type: cell-based
[2] = system: Escherichia coli; test: Preliminary antimicrobial test, plate growth score; assay type: cell-based
[3] = system: Pseudomonas aeruginosa; test: Preliminary antimicrobial test, plate growth score; assay type: cell-based; set-up: key: 1=very slight; 2=slight; 3=slight to moderate; 4=moderate; 10=total plate growth (maximal growth)
[4] = system: Bacillus subtilis; test: Preliminary antimicrobial test, plate growth score; assay type: cell-based
[5] = system: Staphylococcus aureus; test: Preliminary antimicrobial test, plate growth score; assay type: cell-based
[6] = system: Candida albicans; test: Preliminary antimicrobial test, plate growth score; assay type: cell-based; set-up: key: 1=very slight; 2=slight; 3=slight to moderate; 4=moderate; 10=total plate growth (maximal growth)
[7] = system: Aspergillus niger; test: Preliminary antimicrobial test, plate growth score; assay type: cell-based
[8] = system: Trychophton mentagrophytes; test: Preliminary antimicrobial test, plate growth score; assay type: cell-based; set-up: key: 1=very slight; 2=slight; 3=slight to moderate; 4=moderate; 10=total plate growth (maximal growth)
[9] = Storage stability (chemical assays and physical characteristics); assay type: physicochemical; conditions: crystalline; 25 degrees Centigrade
From the text: A critical feature of the compositions of this invention is the chemical stability of the active ingredient(s), pirfenidone and/or related compounds. Crystalline pirfenidone is stable at room temperature (i.e., 25 degrees Centigrade) for more than five years. The formulations described above are stable for two years or longer at 25 degrees Centigrade (room temperature), based upon chemical assays and upon physical characteristics (color, plasticity, active ingredient dispersion and suspension).

[10] = Primary rabbit acute eye irritation test (Draize method); assay type: in vivo; conditions: 2.0% sterile aqueous solution, 0.1 ml. per eye; six albino rabbits; examined up to 10 days
Experimental: The eyes were carefully examined at 1.0 minutes, 30 minutes, and 3 hours after applying the solution, and then repeatedly examined for 10 days after the application of the pirfenidone solution (0.1 ml. per eye).
The eyes were carefully examined at 1, 3, 8, 24, and 48 hours and carefully re-examined daily for 10 days after the application of the ointment (100 milligrams per eye).

[11] = Pirfenidone concentration 5.0 wt.%
[12] = Pirfenidone concentration 10.0 wt.%

- stable at room temperature [9]: more than five
Compound: Cc1ccc(=O)n(-c2ccccc2)c1 [Pirfenidone, 5-methyl-1-phenyl-2-(1H) pyridone]
- GROWTH SCORES (0 TO 10) [1, 11]: 0
- GROWTH SCORES (0 TO 10) [1, 12]: 0
- GROWTH SCORES (0 TO 10) [2, 11]: 0
- GROWTH SCORES (0 TO 10) [2, 12]: 0
- GROWTH SCORES (0 TO 10) ([3]; Pirfenidone concentration 2.0 wt.%): 1
- GROWTH SCORES (0 TO 10) [3, 11]: 0
- GROWTH SCORES (0 TO 10) [3, 12]: 0
- GROWTH SCORES (0 TO 10) [4, 11]: 0
- GROWTH SCORES (0 TO 10) [4, 12]: 0
- GROWTH SCORES (0 TO 10) [5, 11]: 0
- GROWTH SCORES (0 TO 10) [5, 12]: 0
- GROWTH SCORES (0 TO 10) [6, 11]: 2
- GROWTH SCORES (0 TO 10) [6, 12]: 0
- GROWTH SCORES (0 TO 10) [7, 11]: 0
- GROWTH SCORES (0 TO 10) [7, 12]: 0
- GROWTH SCORES (0 TO 10) [8, 11]: 2
- GROWTH SCORES (0 TO 10) [8, 12]: 0
- eye irritation (hyperemia, edema, eye discomfort, chemotaxis) [10]: failed to cause any irritation
